This note sets out measurements from patent publication US5808040A, “L-nucleosides incorporated into polymeric structure for stabilization of oligonucleotides” (priority 1997, dated 1998).

One data set deals with EBV. Nature of the data set: Inhibitory effect on EBV in H1 cells, bioassay by EBV DP activity in superinfected Raji cells. It counts as cell-based, Epstein-Barr virus. Conditions: EBV ID90 vs H1 cell CD50. The procedure:
(§1) H1 cells were maintained in […] growth for two days prior to the initiation of treatment. The cells were centrifuged at 600 g for 10 min. at room temperature to separate them from the medium containing pre-existing virus particles. The H1 cells were seeded in 24 well plates at a density of 1×10^5 cells per well in 2 ml of fresh medium with or without drug and incubated at 37° C. for 5 days. The medium containing virion was saved and used for evaluating the inhibitory effect of drugs on virus production and infectivity by use of a bioassay. The virion were pelleted from the cell free medium by centrifugation at 45,000 rpm for 90 min. in a SW-50 Ti rotor (Beckman). The virion were resuspended in 1 ml growth medium and then used to infect 1×10^6 Raji cells for 48 hours. Since the level of EBV DP activity in Raji cells post superinfection is proportional to the number of virions added, the EBV specific DP activity induced was able to be measured. The inhibitory drug effect was calculated by comparing the EBV DP activity to multiple dilution controls.
and compared with controls. Hl cells were treated for 5 days and the
ID90 was determined by bioassay.

Data set [1] is described as follows: Toxicity in BDF1 female mice, change in body weight over thirty days. The class given is in vivo, mouse. The procedure: FIG. 13a illustrates the change in body weight over thirty days of control BDF1 female mice. FIGS. 13b and 13c illustrate the change in body weight over thirty days of BDF1 female mice dosed with 10 mg/kg (13b) and 50 mg/kg (13c) bid of L-(-)-FMAU. The body weight presented represents the mean and standard deviation of that of five to seven mice.

The subject of a further data set is H1 cells. Nature of the data set: Cytotoxicity in H1 cells (72 hours, cell count). The class given is cell-based. Conditions: summary statement, cells not specified. Here is the method: Inhibitory effect of compounds on EBV: The CD50 was performed by
exposing Hl cells to different concentrations of the compounds in normal
growth medium at 37° C. for 72 hours; the cells were then counted
and compared with controls. Hl cells were treated for 5 days and the […]

Data set [2] can be described thus: Clinical chemistry of mouse plasma after L-(-)-FMAU treatment. Conditions: 10 or 50 mg/kg bid for thirty days. It counts as in vivo. The procedure:
FIGS. 14-20 provide the clinical chemistry of mouse plasma after administration of L-(-)-FMAU at 10 mg/kg (three mice) or 50 mg/kg (three mice) bid for thirty days.

A short description of data set [3]: Clearance of L-(-)-FMAU from plasma and liver of mice after oral administration. The class given is in vivo, mouse. Here is the method:
The clearance of L-(-)-FMAU from the plasma and liver of mice after oral administration was evaluated. Mice were […] with L-(-)-FMAU which was tritium labeled (radiospecificity of […]).
FIG. 11 is a graph of the plasma concentration of L-(-)-FMAU in mice after oral administration 10 over time, and FIG. 12 is a graph of the concentration of L-(-)-FMAU in mouse liver after oral administration over time (cross, 10 mg/kg administered bid (bi-daily) for 30 days prior to pharmacokinetic study and then study carried out on day thirty one on administration of same concentration; dark circle, 50 mg/kg administered bid for 30 days prior to study and then study carried out on day thirty one on administration of same concentration; open circle, 50 mg/kg administered for the first time on the first day of the study).
At the times indicated (see FIGS. 10 and 11) the mice were bled from their retro-orbital sinus using heparinized capillaries. The plasma was extracted with trichloroacetic acid and neutralized with freon/trioctylamine. Supernatants were directly counted and the concentration calculated.

The test system of another data set is mitochondrial DNA. Nature of the data set: Mitochondrial DNA content in H1 cells (slot blot assay). The class given is cell-based, human. Conditions: 1 mM, 6 days. Here is the method:
as §1
Slot Blot Assay--The amount of mitochondrial DNA was measured by the slot blot method (2). […] The amount of mitochondrial DNA in the treated and non-treated H1 cells was quantified by densitometer (LKB Ultroscan XL).

Where [4] appears, read: with the exception of mouse 50-2.

Bounds are passed on as bounds.

For the compound `Nc1nc2c(ncn2COCCO)c(=O)[nH]1` [ACV], the “Therapeutic Index (CD50 /ID90)” value in the data set with EBV is reported as 20.

For the compound `CCc1cn([C@@H]2O[C@H](CO)[C@@H](O)[C@@H]2F)c(=O)[nH]c1=O` [D-FEAU], the “Therapeutic Index (CD50 /ID90)” value in the data set on EBV came out at 2000.

For `Nc1nc(=O)n([C@@H]2O[C@H](CO)[C@@H](O)[C@@H]2F)cc1I` [D-FIAC], the “Therapeutic Index (CD50 /ID90)” value in the data set on EBV is recorded as 25.

As to `O=c1[nH]c(=O)n([C@@H]2O[C@H](CO)[C@@H](O)[C@@H]2F)cc1I` [D-FIAU], the “Therapeutic Index (CD50 /ID90)” value with EBV is 40.

For `Cc1cn([C@@H]2O[C@H](CO)[C@@H](O)[C@@H]2F)c(=O)[nH]c1=O` [D-FMAU], the “Therapeutic Index (CD50 /ID90)” value in the data set on EBV is reported as 50.

With `Nc1nc2c(ncn2COC(CO)CO)c(=O)[nH]1` [DHPG], in the data set on EBV, the “Therapeutic Index (CD50 /ID90)” value amounted to 15.

In the case of `CCc1cn([C@H]2O[C@@H](CO)[C@H](O)[C@H]2F)c(=O)[nH]c1=O` [L-FEAU, 2'-fluoro-5-ethyl-β-L-arabinofuranosyluridine], the “Therapeutic Index (CD50 /ID90)” value in the data set with EBV was 15.

On to `Nc1nc(=O)n([C@H]2O[C@@H](CO)[C@H](O)[C@H]2F)cc1I` [L-FIAC, 2'-fluoro-5-iodo-β-L-arabinofuranosylcytosine], for which the “Therapeutic Index (CD50 /ID90)” value in the data set on EBV is more than 40.

Consider `O=c1[nH]c(=O)n([C@H]2O[C@@H](CO)[C@H](O)[C@H]2F)cc1I` [L-FIAU, 2'-fluoro-5-iodo-β-L-arabinofuranosyluridine], for which the “Therapeutic Index (CD50 /ID90)” value in the data set with EBV was found to be 12.

In the case of `Cc1cn([C@H]2O[C@@H](CO)[C@H](O)[C@H]2F)c(=O)[nH]c1=O` [L-FMAU, 2'-fluoro-5-methyl-β-L-arabinofuranosyluridine], the “Therapeutic Index (CD50 /ID90)” value in the data set with EBV came out at 200. Also, in data set [1] (BDF1 female mice, 10 and 50 mg/kg bid, thirty days), the tolerability result is recorded as “well tolerated”. In data set [1] (mouse, in vivo), the “change in body weight” value is on record as “did not appear to significantly affect the weight of the mice over thirty days”. In the data set on H1 cells, the “cytotoxicity (in words)” value is given as “low cytotoxicity”. Besides, in data set [2], the “lactic acid in mouse plasma” value was “not significantly different from those of the control mice”, the “lactic dehydrogenase in mouse plasma” value was “not significantly different from those of the control mice” and the “total bilirubin in mouse plasma” value is on record as “fall within the normal human range (less than 1.2 mg/dL)”. The “alkaline phosphatase in mouse plasma” value in data set [2] (normal human level 30-114 U/L) is “somewhat higher than the normal human level”. In addition, in data set [2] (setting [4]), the “ALT (SGPT) in mouse plasma” value is listed as “not different from those of the control mice” and the “creatinine in mouse plasma” value is “not different from those of the control mice”. The “AST (SGOT) in mouse plasma” value in data set [2] (with the exception of mouse 50-2 and mouse 10-2) is “not different from those of the control mice”. Further, the “time of peak concentration in liver” value in data set [3] (10 or 50 mg/kg, liver) is recorded as “approximately one”. In addition, the clearance from liver entry in data set [3] (liver) was “substantially cleared from both plasma and liver after four hours”. In addition, in data set [3] (plasma), the clearance from plasma entry was “substantially cleared from both plasma and liver after four hours”. Besides, in the data set on mitochondrial DNA, the “inhibition of mitochondrial DNA content in H1 cells” value is listed as “No inhibition”.

As to `Nc1nc2c(ncn2CCC(CO)CO)c(=O)[nH]1` [PCV], in the data set on EBV, the “Therapeutic Index (CD50 /ID90)” value is 25.

As to `O=C(O)P(=O)(O)O` [PFA], the “Therapeutic Index (CD50 /ID90)” value in the data set on EBV is on record as 16.
